According to patent US9896466B2 (Smart Brain S.R.O., priority 2013, dated 2018):

Experiments:
mitochondrial potential = experiment: Decrease in mitochondrial potential; assay type: cell-based; conditions: 5 μM, within 1 h
oestrogen receptor ERα = experiment: ERα expression by real-time PCR; assay type: cell-based; conditions: 1 μM
[1] = test system: MCF7 sublines differing in HER2 levels; experiment: Formation of reactive oxygen species (ROS); assay type: cell-based, human; conditions: 5 μM, 1 h exposure
Description: A property typically associated a number of mitocans is their ability to increase oxidative stress (formation of reactive oxygen species, ROS), selectively in cancer cells, especially associated with their action on mitochondrial complexes participating with oxidative phosphorylation. […] We tested formation of ROS also for MitoTAX.

MCF7HER2− = conditions: FIG. 4, survival, crystal violet
Description: MitoTAX prepared according to Example 6 was tested for its effect on breast cancer cell lines. Lines with different levels of HER2 protein expression and oestrogen receptor α. (ERα) were used. The cell line MCF7 features a relatively low expression of the HER2 protein. For the testing of killing of breast cancer cells with different HER2 protein levels by MitoTAX, we prepared HER2^− and HER^+ MCF7 cells. MCF7 cells were transfected with the vector with a ‘non-silencing’ sequence (NS), with a ‘short hairpin’ sequence attenuating the expression of HER2 (sh) and with the vector with a gene for HER2. […] In the subsequent work, the sublines NS, Sh1 26 (clone 26) and +11 (clone 11) were used.
The individual values were determined from the survival curves of cells at various concentrations of both substances using the crystal violet method.

mitochondrial complex I = experiment: Respiration via mitochondrial complexes I and II, Oxygraf; assay type: cell-based, human; conditions: MCF7 cells, respiration at increasing doses
Description: Respiration (oxygen consumption linked with ATP formation) is related to 10^6 cells and is shown as a relative value with the beginning level of respiration marked with the relative value of 1.

| Compound | reduction of mitochondrial potential (mitochondrial potential) | reduction of ERα expression (oestrogen receptor ERα) | generation of ROS [1] | response of line with reduced HER2 expression (clone 26) (MCF7HER2−) | concentration at which complex I is inhibited preferably to complex II (mitochondrial complex I) |
| --- | --- | --- | --- | --- | --- |
| N#CC(C#N)=NNc1cccc(Cl)c1 [CCCP] | reduces the mitochondrial potential to its basal value | – | – | – | – |
| CC/C(=C(\c1ccccc1)c1ccc(OCCN(C)C)cc1)c1ccccc1 [TAX, tamoxifen] | – | ineffective | markedly less effective | exactly opposite | exceeding 20 μM |
